# PubChem BioAssay AID2060483 (Molecular Pharmacology Branch, DTP, NCI, 2025)
# Tested on: K24384-001-R-PDC complex spheroids, viability
# Assay: Anticancer human tumor K24384-001-R-PDC patient-derived pancreatic adenocarcinoma cell line growth inhibition [GQUAD]
# Settings: for IC50: curve of first compound; for viability, T/C: stronger effect = lower value
# In short: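 Viability of tumor cells grown as complex spheroids with endothelial and stromal cells, exposed to drug combinations. Top concentration at or near clinical Cmax (else 10 microM), diluted in half-log increments.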
# [1] = second compound 0.0316 µM, first compound 0.0316 µM
# [2] = second compound 0.0316 µM, first compound 0.1 µM
# [3] = second compound 0.0316 µM, first compound 0.316 µM
# [4] = second compound 0.0316 µM, first compound 1 µM
# [5] = second compound 0.0316 µM, first compound 3.16 µM
# [6] = second compound 0.0316 µM, first compound 10 µM
# [7] = second compound 0.1 µM, first compound 0.0316 µM
# [8] = second compound 0.1 µM, first compound 0.1 µM
# [9] = second compound 0.1 µM, first compound 0.316 µM
# [10] = second compound 0.1 µM, first compound 1 µM
# [11] = second compound 0.1 µM, first compound 3.16 µM
# [12] = second compound 0.1 µM, first compound 10 µM
# [13] = second compound 0.316 µM, first compound 0.0316 µM
# [14] = second compound 0.316 µM, first compound 0.1 µM
# [15] = second compound 0.316 µM, first compound 0.316 µM
# [16] = second compound 0.316 µM, first compound 1 µM
# [17] = second compound 0.316 µM, first compound 3.16 µM
# [18] = second compound 0.316 µM, first compound 10 µM
# [19] = second compound 1 µM, first compound 0.0316 µM
# [20] = second compound 1 µM, first compound 0.1 µM
# [21] = second compound 1 µM, first compound 0.316 µM
# [22] = second compound 1 µM, first compound 1 µM
# [23] = second compound 1 µM, first compound 3.16 µM
# [24] = second compound 1 µM, first compound 10 µM
# [25] = second compound 3.16 µM, first compound 0.0316 µM
# [26] = second compound 3.16 µM, first compound 0.1 µM
# [27] = second compound 3.16 µM, first compound 0.316 µM
# [28] = second compound 3.16 µM, first compound 1 µM
# [29] = second compound 3.16 µM, first compound 3.16 µM
# [30] = second compound 3.16 µM, first compound 10 µM
# [31] = second compound 10 µM, first compound 0.0316 µM
# [32] = second compound 10 µM, first compound 0.1 µM
# [33] = second compound 10 µM, first compound 0.316 µM
# [34] = second compound 10 µM, first compound 1 µM
# [35] = second compound 10 µM, first compound 3.16 µM
# [36] = second compound 10 µM, first compound 10 µM
# 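Note: spheroids exposed to compounds for seven days.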
smiles,measurement,setting,value
COc1cccc2c1C(=O)c1c(O)c3c(c(O)c1C2=O)CC(O)(C(=O)CO)CC3OC1CC(N)C(O)C(C)O1 (stereo unspecified) + Cc1[nH]c2ccc(F)cc2c1-c1nc2c3cccnc3c3ncccc3c2[nH]1,IC50,second compound 0.0316 µM,191 nM
same,IC50,second compound 0.1 µM,204 nM
same,IC50,second compound 0.316 µM,203 nM
same,IC50,second compound 1 µM,219 nM
same,IC50,second compound 3.16 µM,126 nM
same,IC50,second compound 10 µM,80.1 nM
same,"viability, T/C",[1],89.8%
same,"viability, T/C",[2],70%
same,"viability, T/C",[3],33.1%
same,"viability, T/C",[4],17.6%
same,"viability, T/C",[5],5.95%
same,"viability, T/C",[6],4.77%
same,"viability, T/C",[7],78.8%
same,"viability, T/C",[8],64.8%
same,"viability, T/C",[9],39.2%
same,"viability, T/C",[10],25.6%
same,"viability, T/C",[11],8.24%
same,"viability, T/C",[12],4.61%
same,"viability, T/C",[13],74.2%
same,"viability, T/C",[14],63.4%
same,"viability, T/C",[15],40.9%
same,"viability, T/C",[16],22.4%
same,"viability, T/C",[17],6.31%
same,"viability, T/C",[18],4.4%
same,"viability, T/C",[19],85.4%
same,"viability, T/C",[20],75.3%
same,"viability, T/C",[21],32.2%
same,"viability, T/C",[22],27.8%
same,"viability, T/C",[23],7.66%
same,"viability, T/C",[24],4.24%
same,"viability, T/C",[25],70.6%
same,"viability, T/C",[26],55.1%
same,"viability, T/C",[27],32%
same,"viability, T/C",[28],28%
same,"viability, T/C",[29],7.01%
same,"viability, T/C",[30],1.96%
same,"viability, T/C",[31],60.5%
same,"viability, T/C",[32],49.3%
same,"viability, T/C",[33],28.1%
same,"viability, T/C",[34],20%
same,"viability, T/C",[35],5.65%
same,"viability, T/C",[36],1.85%
Cc1[nH]c2ccccc2c1CCNCc1ccc(/C=C/C(=O)NO)cc1 + Cc1[nH]c2ccc(F)cc2c1-c1nc2c3cccnc3c3ncccc3c2[nH]1,IC50,second compound 0.0316 µM,139 nM
same,IC50,second compound 0.1 µM,138 nM
same,IC50,second compound 0.316 µM,121 nM
same,IC50,second compound 1 µM,124 nM
same,IC50,second compound 3.16 µM,128 nM
same,IC50,second compound 10 µM,134 nM
same,"viability, T/C","second compound 0.0316 µM, first compound 0.000999 µM",103%
same,"viability, T/C","second compound 0.0316 µM, first compound 0.00316 µM",111%
same,"viability, T/C","second compound 0.0316 µM, first compound 0.00999 µM",119%
same,"viability, T/C",[1],103%
same,"viability, T/C","second compound 0.0316 µM, first compound 0.0999 µM",67.9%
same,"viability, T/C",[3],5.6%
same,"viability, T/C","second compound 0.1 µM, first compound 0.000999 µM",99.1%
same,"viability, T/C","second compound 0.1 µM, first compound 0.00316 µM",95.2%
same,"viability, T/C","second compound 0.1 µM, first compound 0.00999 µM",98.7%
same,"viability, T/C",[7],99.6%
same,"viability, T/C","second compound 0.1 µM, first compound 0.0999 µM",66.7%
same,"viability, T/C",[9],7.11%
same,"viability, T/C","second compound 0.316 µM, first compound 0.000999 µM",95%
same,"viability, T/C","second compound 0.316 µM, first compound 0.00316 µM",92.9%
same,"viability, T/C","second compound 0.316 µM, first compound 0.00999 µM",101%
same,"viability, T/C",[13],103%
same,"viability, T/C","second compound 0.316 µM, first compound 0.0999 µM",58.6%
same,"viability, T/C",[15],5.93%
same,"viability, T/C","second compound 1 µM, first compound 0.000999 µM",91.3%
same,"viability, T/C","second compound 1 µM, first compound 0.00316 µM",91.8%
same,"viability, T/C","second compound 1 µM, first compound 0.00999 µM",124%
same,"viability, T/C",[19],118%
same,"viability, T/C","second compound 1 µM, first compound 0.0999 µM",60.1%
same,"viability, T/C",[21],7.14%
same,"viability, T/C","second compound 3.16 µM, first compound 0.000999 µM",81.3%
same,"viability, T/C","second compound 3.16 µM, first compound 0.00316 µM",87.7%
same,"viability, T/C","second compound 3.16 µM, first compound 0.00999 µM",77.3%
same,"viability, T/C",[25],94.4%
same,"viability, T/C","second compound 3.16 µM, first compound 0.0999 µM",61.1%
same,"viability, T/C",[27],8.67%
same,"viability, T/C","second compound 10 µM, first compound 0.000999 µM",77.2%
same,"viability, T/C","second compound 10 µM, first compound 0.00316 µM",72.9%
same,"viability, T/C","second compound 10 µM, first compound 0.00999 µM",77.2%
same,"viability, T/C",[31],118%
same,"viability, T/C","second compound 10 µM, first compound 0.0999 µM",65.4%
same,"viability, T/C",[33],5.58%
O=c1[nH]cc(F)c(=O)[nH]1 + Cc1[nH]c2ccc(F)cc2c1-c1nc2c3cccnc3c3ncccc3c2[nH]1,IC50,second compound 0.0316 µM,4360 nM
same,IC50,second compound 0.1 µM,> 10000 nM
same,IC50,second compound 0.316 µM,1180 nM
same,IC50,second compound 1 µM,3090 nM
same,IC50,second compound 3.16 µM,479 nM
same,IC50,second compound 10 µM,581 nM
same,"viability, T/C",[1],98.4%
same,"viability, T/C",[2],77.9%
same,"viability, T/C",[3],76.1%
same,"viability, T/C",[4],55.5%
same,"viability, T/C",[5],54.9%
same,"viability, T/C",[6],44.4%
same,"viability, T/C",[7],88.4%
same,"viability, T/C",[8],92.7%
same,"viability, T/C",[9],86.8%
same,"viability, T/C",[10],55.6%
same,"viability, T/C",[11],62.4%
same,"viability, T/C",[12],39.6%
same,"viability, T/C",[13],97%
same,"viability, T/C",[14],90.9%
same,"viability, T/C",[15],66.3%
same,"viability, T/C",[16],53.3%
same,"viability, T/C",[17],43.2%
same,"viability, T/C",[18],39.9%
same,"viability, T/C",[19],88.2%
same,"viability, T/C",[20],93.1%
same,"viability, T/C",[21],66.7%
same,"viability, T/C",[22],59.9%
same,"viability, T/C",[23],54.8%
same,"viability, T/C",[24],36.3%
same,"viability, T/C",[25],69.4%
same,"viability, T/C",[26],56.5%
same,"viability, T/C",[27],51.9%
same,"viability, T/C",[28],53%
same,"viability, T/C",[29],35.5%
same,"viability, T/C",[30],43%
same,"viability, T/C",[31],65.3%
same,"viability, T/C",[32],53.6%
same,"viability, T/C",[33],62.3%
same,"viability, T/C",[34],40.7%
same,"viability, T/C",[35],33.8%
same,"viability, T/C",[36],31.7%
